# Test results from patent US20260345584A1, “METHODS AND PHARMACEUTICAL COMPOSITIONS FOR TREATING CHEMOTHERAPY-INDUCED PERIPHERAL NEUROPATHY WITH EG5 INHIBITORS” (UNIVERSITY OF MIAMI, priority 2023, published 2026).
# Key:
# keratinocyte nuclei = experiment: Nuclear volume and sphericity of keratinocytes; format: in vivo, zebrafish; conditions: 96 hr, keratinocytes with dfMTs
# Protocol: Nuclear sphericity and volume were calculated in Imaris following 3D rendering of round keratinocyte nuclei using the Surface tool. First, background subtractions were performed, followed by automatic threshold detection. The threshold was adjusted if necessary to fit the nucleus. Thresholds were kept constant for comparisons.
# It was expected that dfMTs should be in close proximity to the nucleus in order to activate Nox1 by mechanotransduction. To further confirm this expectation, high resolution imaging and 3D rendering of keratinocyte dfMTs and nuclei were used.
# skin gene expression = experiment: Human skin RNAseq of paclitaxel-treated CIPN patients; format: in vivo
# Protocol: Neurological history, examination, and QLQ-CIPN20 quality of life questionnaire, which has been validated to detect the presence of CIPN (Postma et al., 2005, Eur J Cancer 41: 1135-1139), was completed in all subjects. Consent was given to obtain two skin punch biopsies of approximately 4 mm diameter. These were collected 10 cm proximal to the lateral malleolus on the distal leg as described previously (Engelstad et al., 2012, Neurology 79: 2187-2193). The biopsies were carried out under anesthesia following local injection of 2% lidocaine with epinephrine, using a sterile technique. In addition, three healthy volunteers of similar age and same gender (female) were recruited as controls. […] Sequence reads were trimmed to remove possible adapter sequences and nucleotides with poor quality using Trimmomatic v.0.36. The trimmed reads were mapped to the Homo sapiens GRCh38 reference genome available on ENSEMBL using the STAR aligner v.2.5.2b. The STAR aligner was a splice aligner that detects splice junctions and incorporates them to help align the entire read sequences. […] Unique gene hit counts were calculated by using featureCounts from the Subread package v.1.5.2. […] Only unique reads that fell within exon regions were counted. If a strand-specific library preparation was performed, the reads were strand-specifically counted. […]
# [1] = test system: Tau-Bfp2 microtubules in keratinocytes; experiment: Tau-Bfp2-stabilized microtubules in keratinocytes; format: in vivo, zebrafish; conditions: 96 hr
# Protocol: Fish were anesthetized in 2-phenoxyethanol (1:1000) in Ringer's solution prior to imaging and mounted in 1.2% agarose. EB3-GFP and Tau-Bfp2 were imaged with a scan speed kept at the maximum level in single slice mode with […] for a total of 60s to capture microtubule dynamics. h2a:H2A-GFP time-lapse recordings were produced (Zeiss LSM880 AiryScan confocal microscope) with 1 μm sections recorded every 10 min for 12 hr using 800×800 pixels. All other live fish were imaged using 1024×1024 pixels.
# Microtubule analyses was performed in Imaris 9.5.1 (Bitplane) by measuring the straightness of filaments (microtubules) using the “Filaments—Dendrite Straightness” tool, which was defined as the ratio between […] between two branch points (h). The value was always smaller than 1 since the Dendrite Straightness of 1 defines straight objects.
# EB3-GFP tracking was done in Fiji using the MTrackJ plugin to trace microtubules over time and create Kymographs, measure the velocity, track length, and comet duration. Tracking was also performed using the Spots and Surface tools in Imaris. Settings were initially automatically detected to fit the fluorescence and subsequently modified manually for improved fit. Settings were maintained between treatment groups.
# Tau therefore seems to prevent paclitaxel-induced dfMT formation.
# Thus EB3-GFP plus-ends appeared in part to grow along pre-existing stable microtubules, which could be a means to maintain cellular organization.
# [2] = test system: HyPer oxidation in keratinocytes; experiment: HyPer imaging of H2O2 production upon caudal fin stretch; format: in vivo, zebrafish; conditions: wildtype, 3 hr paclitaxel
# Protocol: HyPer fluorescence was measured in the oxidized (505 nm) and unoxidized (420 nm) channels by using the region of interest (ROI) function in ZEN Black (Zeiss) whereby ROIs were selected inside highly magnified mitochondria (HyPer-mito), cytoplasm (HyPer-cyto) or the plasma membrane (HyPer-CAAX). The data was exported, and ratios determined in Excel. H2O2 measurements in zebrafish transiently injected with tp63:Hyper were manually performed by placing spot objects in Imaris 9.5.1 onto individual cells such that the spots extended to the lateral edges. Fluorescence intensities were measured inside the spots and 505 nm/420 nm ratios were subsequently calculated.
# The extent of stretch that was induced in wildtype transgenic Tg(tp63:GFP-CAAX) (Lisse et al., 2016, Proceedings of the National Academy of Sciences of the United States of America 113: E2189-2198) fish in which keratinocyte plasma membranes are fluorescently labelled was characterized.
# To further investigate whether paclitaxel in combination with stretch alters ROS formation, HyPer imaging was performed.
compound,measurement,setting,value
CC(=O)O[C@H]1C(=O)[C@@]2(C)[C@H]([C@H](OC(=O)c3ccccc3)[C@]3(O)C[C@H](OC(=O)[C@H](O)[C@@H](NC(=O)c4ccccc4)c4ccccc4)C(C)=C1C3(C)C)[C@]1(OC(C)=O)CO[C@@H]1C[C@@H]2O [paclitaxel],nuclear volume,keratinocyte nuclei; 22 μM paclitaxel,582±83.18 μm3
same,nuclear sphericity (1=spherical vs. 0=nonspherical),keratinocyte nuclei; paclitaxel,0.23±0.01
same,KIF11 expression,skin gene expression; CIPN patients after paclitaxel vs controls,upregulated in all three patients
same,NOX1 and CYBB expression,skin gene expression; CIPN patients after paclitaxel vs healthy controls,most highly upregulated genes
same,EB3-GFP puncta co-localized with Tau-Bfp2,[1]; Tau-Bfp2 + 22 μM paclitaxel,91.26±1.64%
same,velocity of EB3-GFP plus-ends,[1]; Tau-Bfp2 + paclitaxel,0.184±0.003 μm/s
same,"microtubule straightness (1=straight, 0=curved)",[1]; strong Tau-Bfp2 + paclitaxel,0.98±0.002
same,time of peak HyPer oxidation post-stretch,[2],10 to 20 min
